Reference: US11884905B2, “Fluidic chip for cell culture use, culture vessel, and culture method” (University Public Corporation Osaka, priority 2017, dated 2024)

Key:
Format in all cases: cell-based
Settings in all cases: culture solution containing 20 μM doxorubicin, 24 hours, optical microscope
[1] = tested on: human hepatoma-derived cells; experiment: Fluidic chip three-dimensional culture with doxorubicin, hepatoma cells (upstream)
Experimental: (§1) Cardiac toxicity known as efficacy and side effect of doxorubicin widely used as an anticancer drug was assessed using the fluidic chip for cell culture use according to the present invention.
(§2) First, five culture vessels 9a each enclosing human hepatoma-derived cells were manufactured, three culture vessels 9b each enclosing human umbilical vein endothelial cells were manufactured, three culture vessels 9c each enclosing human myocardial cells were manufactured, three culture vessels 9d each enclosing human bronchial epithelial cells were manufactured, and three culture vessels 9e each enclosing human fibroblast cells were manufactured. These culture vessels 9a to 9e were subjected to preparatory culture (cultured in three dimensions) for two days in wells 33 of the multi-well plate 32, respectively. The culture vessels were manufactured in the same manner as in the cell culture experiment (1), except that the kinds of the cells to be cultured were changed. FIG. 15 illustrates the photograph of the multi-well plate 32 after the preparatory culture.
(§3) Thereafter, the culture vessels 9a to 9e were set on an optical microscope, and the cultured cells were observed. […] Then, sample cells in good condition in shape were only extracted. […]

human myocardial cells = experiment: Fluidic chip three-dimensional culture with doxorubicin, cardiac toxicity on myocardial cells downstream of hepatoma cells
Experimental: as §1, §2, §3

[2] = tested on: human bronchial epithelial cells; experiment: Fluidic chip three-dimensional culture with doxorubicin, bronchial epithelial cells downstream of hepatoma cells (control)
Experimental: as §1, §2, §3

human fibroblast cells = experiment: Fluidic chip three-dimensional culture with doxorubicin, fibroblast cells downstream of hepatoma cells (control)
Experimental: as §1, §2, §3

change in shape / growth of fibroblast cells (human fibroblast cells): the fibroblast cells continued to grow
SMILES: COc1cccc2c1C(=O)c1c(O)c3c(c(O)c1C2=O)C[C@@](O)(C(=O)CO)C[C@@H]3O[C@H]1C[C@H](N)[C@H](O)[C@H](C)O1 [doxorubicin]
change in shape of hepatoma cells (infiltrating portions), efficacy as anticancer drug [1]: the infiltrating portions disappear within twenty-four hours
change in shape of myocardial cells (cardiac toxicity) (human myocardial cells): entirely reduced in size
change in shape / growth of bronchial epithelial cells [2]: a branch of a bronchus was wide and continued to grow
